This is an account of results in patent publication US12577255B2, “MDM2-based modulators of proteolysis and associated methods of use” (Arvinas Operations, Inc., priority 2015, dated 2026).

In one test the target is T1, androgen receptor (AR) (Homo sapiens, UniProt P10275).
T1 construct: detects endogenous levels of total androgen receptor protein; host or cells: VCaP
T1 sequence (P10275 1-920): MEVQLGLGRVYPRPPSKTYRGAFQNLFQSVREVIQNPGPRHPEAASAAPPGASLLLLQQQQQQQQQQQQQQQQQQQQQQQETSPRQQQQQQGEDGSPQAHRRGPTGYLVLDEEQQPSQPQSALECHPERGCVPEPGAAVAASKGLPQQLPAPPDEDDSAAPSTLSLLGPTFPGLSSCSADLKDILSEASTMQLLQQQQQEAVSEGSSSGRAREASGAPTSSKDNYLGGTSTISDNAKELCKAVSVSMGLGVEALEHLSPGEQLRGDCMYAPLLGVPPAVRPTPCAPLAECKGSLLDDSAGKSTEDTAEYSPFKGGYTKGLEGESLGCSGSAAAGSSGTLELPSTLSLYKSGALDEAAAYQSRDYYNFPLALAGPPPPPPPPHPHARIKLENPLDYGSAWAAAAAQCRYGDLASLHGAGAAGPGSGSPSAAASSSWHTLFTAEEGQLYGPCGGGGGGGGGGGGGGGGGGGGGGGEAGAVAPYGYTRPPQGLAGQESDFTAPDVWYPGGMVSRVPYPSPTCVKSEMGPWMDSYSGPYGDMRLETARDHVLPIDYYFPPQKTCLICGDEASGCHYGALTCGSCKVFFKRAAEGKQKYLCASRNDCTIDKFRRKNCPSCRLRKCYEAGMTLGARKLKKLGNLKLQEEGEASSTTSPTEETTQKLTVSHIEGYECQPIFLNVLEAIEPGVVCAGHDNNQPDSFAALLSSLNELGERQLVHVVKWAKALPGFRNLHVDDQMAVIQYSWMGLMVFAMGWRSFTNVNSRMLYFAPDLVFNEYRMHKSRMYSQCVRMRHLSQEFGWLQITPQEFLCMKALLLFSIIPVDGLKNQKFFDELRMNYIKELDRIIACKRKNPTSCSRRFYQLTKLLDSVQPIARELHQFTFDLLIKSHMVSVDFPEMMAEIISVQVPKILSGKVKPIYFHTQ
Nature of the test: AR ELISA assay (degradation). Format: cell-based. To be noted: VCaP cells, 16 h. The method, then: The following biological assays were performed to evaluate the protein degradation in various cell types using representative compounds disclosed. The degradation of the following proteins were evaluated: bromodomain-containing protein 4 (BRD4), androgen receptor (AR), c-Myc, c-Jun N-terminal kinases (JNK), and enhancer of zeste homolog 2 (EZH2).
VCaP cells were chased from ATCC and cultured in Dulbecco's Modified Eagle's Medium (ATCC), supplemented with 10% FBS (ATCC) and Penicillin/Streptomycin (Life Technologies). DMSO control and compound treatments (0.0001 μM to 1 μM) were performed in 96-well plates for 16 h. cells were harvested, and lysed with Cell Lysis Buffer (catalog #9803) (20 mM Tris-HCl, pH 7.5, 150 mM NaCl, 1 mM Na2EDTA, 1 mM EGTA, 1% Triton, 2.5 mM sodium pyrophosphate, 1 mM B-glycerophosphate, 1 mM Na3VO4, 1 μg/mL leupeptin. Lysates were clarified at 16,000 g for 10 minutes, and loaded into PathScan AR ELISA (Cell Signaling Catalog #12850). The PathScan Total Androgen Receptor Sanwich ELISA Kit is a solid phase sandwich enzyme-linked immunosorbent assay (ELISA) that detects endogenous levels of total androgen receptor protein. An Androgen Receptor Rabbit mAb has been coated onto the microwells. After incubation with cell lysates, androgen receptor protein is captured by the coated antibody. Following extensive washing, an Androgen receptor Mouse Detection mAbis added to detect the captured androgen receptor protein. Anti-mouse IgG, HRP-linked Antibody is then used to recognize the bound detection antibody. HRP substrate, TMB, is added to develop color. The magnitude of absorbance for the developed color is proportional to the quantity of total androgen receptor protein.

For another test, the system named is p53. The test is described as follows: Western blot of HCT116 cells, p53 level. The test is classed as cell-based, human. To be noted: Western blot (FIG. 2, FIG. 3).

In turn, `CCOc1cc(C(C)(C)C)ccc1C1=NC(C)(c2ccc(Cl)cc2)C(C)(c2ccc(Cl)cc2)N1C(=O)N1CCN(CCOCCOc2ccc(N3C(=S)N(c4ccc(C#N)c(C(F)(F)F)c4)C(=O)C3(C)C)cc2)CC1` (centres unmarked) [Compound A680, 4-(3-{4-[2-(2-{4-[2-(4-tert-butyl-2-ethoxyphenyl)-4,5-bis(4-chlorophenyl)-4,5-dimethyl-4,5-dihydro-1H-imidazole-1-carbonyl]piperazin-1-yl}ethoxy)ethoxy]phenyl}-4,4-dimethyl-5-oxo-2-sulfanylideneimidazolidin-1-yl)-2-(trifluoromethyl)benzonitrile] registered an AR degradation (%) at 1 µM on androgen receptor (AR) of 0 to 25%.
Consider `CCOc1cc(C(C)(C)C)ccc1C1=NC(C)(c2ccc(Cl)cc2)C(C)(c2ccc(Cl)cc2)N1C(=O)N1CCN(CCOCCOCCOCCOCCOCCOc2ccc(N3C(=S)N(c4ccc(C#N)c(C(F)(F)F)c4)C(=O)C3(C)C)cc2)CC1` (centres unmarked) [Compound A702, 4-(3-{4-[(17-{4-[2-(4-tert-butyl-2-ethoxyphenyl)-4,5-bis(4-chlorophenyl)-4,5-dimethyl-4,5-dihydro-1H-imidazole-1-carbonyl]piperazin-1-yl}-3,6,9,12,15-pentaoxaheptadecan-1-yl)oxy]phenyl}-4,4-dimethyl-5-oxo-2-sulfanylideneimidazolidin-1-yl)-2-(trifluoromethyl)benzonitrile], for which the AR degradation (%) at 1 µM on androgen receptor (AR) was in the range of 25 to 50%.
`CC(C)(C)C[C@@H]1NC(C(=O)NCCOCCOc2ccc(C(=O)N[C@H]3C(C)(C)[C@H](Oc4ccc(C#N)c(Cl)c4)C3(C)C)cc2)[C@H](c2cccc(Cl)c2F)[C@@]1(C#N)c1ccc(Cl)cc1F` (stereo partly drawn) [Compound A1571, 3-(3-chloro-2-fluorophenyl)-4-(4-chloro-2-fluorophenyl)-4-cyano-5-(2,2-dimethylpropyl)-N-{2-[2-(4-{[(1,3-trans)-3-(3-chloro-4-cyanophenoxy)-2,2,4,4-tetramethylcyclobutyl]carbamoyl}phenoxy)ethoxy]ethyl}pyrrolidine-2-carboxamide] showed an AR degradation (%) at 1 µM at androgen receptor (AR) of 0 to 25%.
Compound `CC(C)(C)C[C@@H]1NC(C(=O)NCCOCCOCCOCCOc2ccc(C(=O)N[C@H]3C(C)(C)[C@H](Oc4ccc(C#N)c(Cl)c4)C3(C)C)cc2)[C@H](c2cccc(Cl)c2F)[C@@]1(C#N)c1ccc(Cl)cc1F` (stereo partly drawn) [Compound A1603, 3-(3-chloro-2-fluorophenyl)-4-(4-chloro-2-fluorophenyl)-4-cyano-5-(2,2-dimethylpropyl)-N-[1-(4-{[(1,3-trans)-3-(3-chloro-4-cyanophenoxy)-2,2,4,4-tetramethylcyclobutyl]carbamoyl}phenyl)-1,4,7,10-tetraoxadodecan-12-yl]pyrrolidine-2-carboxamide] gave an AR degradation (%) at 1 µM on androgen receptor (AR) of 0 to 25%.
With `CC(C)(C)C[C@@H]1NC(C(=O)NCCOCCOCCOc2ccc(C(=O)N[C@H]3C(C)(C)[C@H](Oc4ccc(C#N)c(Cl)c4)C3(C)C)cc2)[C@H](c2cccc(Cl)c2F)[C@@]1(C#N)c1ccc(Cl)cc1F` (stereo partly drawn) [Compound A1621, 3-(3-chloro-2-fluorophenyl)-4-(4-chloro-2-fluorophenyl)-4-cyano-5-(2,2-dimethylpropyl)-N-(2-{2-[2-(4-{[(1,3-trans)-3-(3-chloro-4-cyanophenoxy)-2,2,4,4-tetramethylcyclobutyl]carbamoyl}phenoxy)ethoxy]ethoxy}ethyl)pyrrolidine-2-carboxamide], the AR degradation (%) at 1 µM at androgen receptor (AR) fell in the range of 0 to 25%.
As for `CC(C)(C)C[C@@H]1NC(C(=O)NCCOCCOCCOCCOCCOCCOc2ccc(C(=O)N[C@H]3C(C)(C)[C@H](Oc4ccc(C#N)c(Cl)c4)C3(C)C)cc2)[C@H](c2cccc(Cl)c2F)[C@@]1(C#N)c1ccc(Cl)cc1F` (stereo partly drawn) [Compound A1688, 3-(3-chloro-2-fluorophenyl)-4-(4-chloro-2-fluorophenyl)-4-cyano-5-(2,2-dimethylpropyl)-N-[1-(4-{[(1,3-trans)-3-(3-chloro-4-cyanophenoxy)-2,2,4,4-tetramethylcyclobutyl]-carbamoyl}phenyl)-1,4,7,10,13,16-hexaoxaoctadecan-18-yl]pyrrolidine-2-carboxamide], the AR degradation (%) at 1 µM at androgen receptor (AR) was in the range of 0 to 25%.
The compound `CC(C)(C)C[C@@H]1NC(C(=O)NCCOCCOCCOCCOCCOc2ccc(C(=O)N[C@H]3C(C)(C)[C@H](Oc4ccc(C#N)c(Cl)c4)C3(C)C)cc2)[C@H](c2cccc(Cl)c2F)[C@@]1(C#N)c1ccc(Cl)cc1F` (stereo partly drawn) [Compound A1717, 3-(3-chloro-2-fluorophenyl)-4-(4-chloro-2-fluorophenyl)-4-cyano-5-(2,2-dimethylpropyl)-N-[1-(4-{[(1,3-trans)-3-(3-chloro-4-cyanophenoxy)-2,2,4,4-tetramethylcyclobutyl]carbamoyl}phenyl)-1,4,7,10,13-pentaoxapentadecan-15-yl]pyrrolidine-2-carboxamide] gave an AR degradation (%) at 1 µM on androgen receptor (AR) of 25 to 50%.
As to `CC(C)(C)C[C@@H]1N[C@@H](C(=O)NCCOCCOCCOCCOCCOc2ccc(C(=O)N[C@H]3C(C)(C)[C@H](Oc4ccc(C#N)c(Cl)c4)C3(C)C)cc2)[C@H](c2cccc(Cl)c2F)[C@@]1(C#N)c1ccc(Cl)cc1F` [Compound A1720, (2R,3S,4R,5S)-3-(3-chloro-2-fluorophenyl)-4-(4-chloro-2-fluorophenyl)-4-cyano-5-(2,2-dimethylpropyl)-N-[1-(4-{[(1,3-trans)-3-(3-chloro-4-cyanophenoxy)-2,2,4,4-tetramethylcyclobutyl]carbamoyl}phenyl)-1,4,7,10,13-pentaoxapentadecan-15-yl]pyrrolidine-2-carboxamide], the AR degradation (%) at 1 µM on androgen receptor (AR) lay in the range of 25 to 50%.
On androgen receptor (AR), `CC(C)(C)C[C@H]1N[C@H](C(=O)NCCOCCOCCOCCOCCOc2ccc(C(=O)N[C@H]3C(C)(C)[C@H](Oc4ccc(C#N)c(Cl)c4)C3(C)C)cc2)[C@@H](c2cccc(Cl)c2F)[C@]1(C#N)c1ccc(Cl)cc1F` [Compound A1735, (2S,3R,4S,5R)-3-(3-chloro-2-fluorophenyl)-4-(4-chloro-2-fluorophenyl)-4-cyano-5-(2,2-dimethylpropyl)-N-[1-(4-{[(1r,3r)-3-(3-chloro-4-cyanophenoxy)-2,2,4,4-tetramethylcyclobutyl]carbamoyl]phenyl)-1,4,7,10,13-pentaoxapentadecan-15-yl]pyrrolidine-2-carboxamide] registered an AR degradation (%) at 1 µM of 0 to 25%.
In the case of `COc1cc(C(=O)NCCOCCOCC(=O)N[C@H](C(=O)N2C[C@H](O)C[C@H]2C(=O)NCc2ccc(-c3scnc3C)cc2)C(C)(C)C)ccc1NC(=O)[C@@H]1N[C@@H](CC(C)(C)C)[C@](C#N)(c2ccc(Cl)cc2F)[C@H]1c1cccc(Cl)c1F` [Compound A1907], the p53 level increase result with p53 is on record as “dose dependent p53 level increase”.
For the compound `COc1cc(C(=O)NCCOCCOCCOCC(=O)N[C@H](C(=O)N2C[C@H](O)C[C@H]2C(=O)NCc2ccc(-c3scnc3C)cc2)C(C)(C)C)ccc1NC(=O)[C@@H]1N[C@@H](CC(C)(C)C)[C@](C#N)(c2ccc(Cl)cc2F)[C@H]1c1cccc(Cl)c1F` [Compound A1910, (2R,3S,4R,5S)-3-(3-chloro-2-fluorophenyl)-4-(4-chloro-2-fluorophenyl)-4-cyano-5-(2,2-dimethylpropyl)-N-{4-[(2-{2-[2-({[(2S)-1-[(2S,4R)-4-hydroxy-2-({[4-(4-methyl-1,3-thiazol-5-yl)phenyl]methyl}-carbamoyl)pyrrolidin-1-yl]-3,3-dimethyl-1-oxobutan-2-yl]carbamoyl}methoxy)-ethoxy]ethoxy}ethyl)carbamoyl]-2-methoxyphenyl}pyrrolidine-2-carboxamide], the p53 level increase entry with p53 was “dose dependent p53 level increase”.
